Measured values taken from paper PMC11111408, “Concurrent inhibition of oncogenic and wild-type RAS-GTP for cancer therapy” (Nature, 2024).

Tested on: PRISM DNA-barcoded human tumour cell lines
Assay: PRISM pooled cell viability assay;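 on PRISM AUC: 8 threefold dilutions from 10 µM with 5 days of exposure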
Type: cell-based
Design: AUC (PRISM viability) / AUC (PRISM): unit not given beside the values
Settings: for AUC (PRISM viability): WT; for PRISM AUC: KRAS MUT
Procedure: Cells were then lysed in TCL mRNA lysis buffer, and then PCR with reverse transcription was performed. Detection of the barcodes and univariate and multivariate analysis was then performed as previously described. Data analysis is described in the Supplementary Methods. Up-to-date code for our analysis is at the github link: https://github.com/cmap/dockerized_mts.
For every gene with non-silent mutations in at least four cell-lines, we compared the AUC values between cells with and without those mutations using a t-test. This analysis was carried out for: (i) the full dataset; (ii) excluding cell lines with non-silent KRAS mutations; and (iii) excluding cell lines that have either KRAS or NRAS non-silent mutations.

CCn1c(-c2cc(N3CCN(C4CC4)CC3)cnc2[C@H](C)OC)c2c3cc(ccc31)-c1csc(n1)C[C@H](NC(=O)[C@H]1[C@@H]3COC[C@@H]31)C(=O)N1CCC[C@H](N1)C(=O)OCC(C)(C)C2 [RMC-7977]
AUC (PRISM viability) (MPP89_PLEURA): 0.9969
AUC (PRISM viability) (MSTO211H_PLEURA): 0.3796
AUC (PRISM viability) (NALM6_HAEMATOPOIETIC_AND_LYMPHOID_TISSUE): 0.7052
AUC (PRISM viability) (NB1_AUTONOMIC_GANGLIA): 0.4921
PRISM AUC (NCIH23_LUNG): 0.451
AUC (PRISM viability) (NCIH28_PLEURA): 0.6741
AUC (PRISM viability) (NCIH82_LUNG): 0.581
AUC (PRISM viability) (NCIH196_LUNG): 0.9033
AUC (PRISM viability) (NCIH226_LUNG): 0.6197
AUC (PRISM viability) (NCIH292_LUNG): 0.4596
AUC (PRISM viability) (NCIH322_LUNG): 0.4865
PRISM AUC (NCIH358_LUNG): 0.1803
PRISM AUC (NCIH441_LUNG): 0.3007
AUC (PRISM viability) (NCIH446_LUNG): 0.8555
AUC (PRISM viability) (NCIH508_LARGE_INTESTINE): 0.3599
AUC (PRISM viability) (NCIH520_LUNG): 0.7662
AUC (PRISM viability) (NCIH522_LUNG): 0.759
AUC (PRISM viability) (NCIH524_LUNG): 0.7662
AUC (PRISM viability) (NCIH596_LUNG): 0.5305
PRISM AUC (NCIH647_LUNG): 0.7239
AUC (PRISM viability) (NCIH661_LUNG): 0.7122
PRISM AUC (NCIH727_LUNG): 0.5024
PRISM AUC (NCIH747_LARGE_INTESTINE): 0.2108
AUC (PRISM viability) (NCIH838_LUNG): 0.8166
AUC (PRISM viability) (NCIH841_LUNG): 0.7846
AUC (PRISM viability) (NCIH1048_LUNG): 0.6373
AUC (PRISM viability) (NCIH1092_LUNG): 0.3222
AUC (PRISM viability) (NCIH1299_LUNG): 0.4354
PRISM AUC (NCIH1339_LUNG): 0.4553
AUC (PRISM viability) (NCIH1341_LUNG): 0.5477
PRISM AUC (NCIH1355_LUNG): 0.4521
PRISM AUC (NCIH1373_LUNG): 0.3791
AUC (PRISM viability) (NCIH1435_LUNG): 0.8637
AUC (PRISM viability) (NCIH1437_LUNG): 0.5969
AUC (PRISM viability) (NCIH1563_LUNG): 0.6189
AUC (PRISM viability) (NCIH1568_LUNG): 0.6734
AUC (PRISM viability) (NCIH1581_LUNG): 0.9998
AUC (PRISM viability) (NCIH1648_LUNG): 0.2199
AUC (PRISM viability) (NCIH1650_LUNG): 0.6245
AUC (PRISM viability) (NCIH1651_LUNG): 0.8871
AUC (PRISM viability) (NCIH1693_LUNG): 0.8183
AUC (PRISM viability) (NCIH1694_LUNG): 0.5791
AUC (PRISM viability) (NCIH1703_LUNG): 0.6825
PRISM AUC (NCIH1792_LUNG): 0.2139
AUC (PRISM viability) (NCIH1793_LUNG): 0.6312
AUC (PRISM viability) (NCIH1838_LUNG): 0.5855
AUC (PRISM viability) (NCIH1915_LUNG): 0.641
PRISM AUC (NCIH1944_LUNG): 0.5331
AUC (PRISM viability) (NCIH1975_LUNG): 0.5382
AUC (PRISM viability) (NCIH2023_LUNG): 0.5354
AUC (PRISM viability) (NCIH2087_LUNG): 0.3287
AUC (PRISM viability) (NCIH2110_LUNG): 0.5875
PRISM AUC (NCIH2122_LUNG): 0.1883
AUC (PRISM viability) (NCIH2126_LUNG): 0.6292
AUC (PRISM viability) (NCIH2170_LUNG): 0.6244
AUC (PRISM viability) (NCIH2171_LUNG): 0.8542
AUC (PRISM viability) (NCIH2172_LUNG): 0.765
AUC (PRISM viability) (NCIH2228_LUNG): 0.4232
PRISM AUC (NCIH2444_LUNG): 0.2818
AUC (PRISM viability) (NCIH2452_PLEURA): 1
AUC (PRISM viability) (NCIN87_STOMACH): 0.7465
AUC (PRISM viability) (NCO2_HAEMATOPOIETIC_AND_LYMPHOID_TISSUE): 0.625
AUC (PRISM viability) (NIHOVCAR3_OVARY): 0.7506
PRISM AUC (NOMO1_HAEMATOPOIETIC_AND_LYMPHOID_TISSUE): 0.4639
AUC (PRISM viability) (NUGC3_STOMACH): 0.3156
AUC (PRISM viability) (NUGC4_STOMACH): 0.304
AUC (PRISM viability) (OAW42_OVARY): 0.7122
AUC (PRISM viability) (OC314_OVARY): 0.7084
AUC (PRISM viability) (OC316_OVARY): 0.6527
AUC (PRISM viability) (OCIAML2_HAEMATOPOIETIC_AND_LYMPHOID_TISSUE): 0.8145
AUC (PRISM viability) (OCIAML3_HAEMATOPOIETIC_AND_LYMPHOID_TISSUE): 0.162
AUC (PRISM viability) (OCILY3_HAEMATOPOIETIC_AND_LYMPHOID_TISSUE): 0.7702
AUC (PRISM viability) (OCIM1_HAEMATOPOIETIC_AND_LYMPHOID_TISSUE): 0.5554
AUC (PRISM viability) (OE19_OESOPHAGUS): 0.4503
AUC (PRISM viability) (OE21_OESOPHAGUS): 0.4077
AUC (PRISM viability) (OE33_OESOPHAGUS): 0.4516
AUC (PRISM viability) (ONCODG1_OVARY): 0.8342
AUC (PRISM viability) (ONS76_CENTRAL_NERVOUS_SYSTEM): 0.1792
AUC (PRISM viability) (OSRC2_KIDNEY): 0.7371
AUC (PRISM viability) (OUMS23_LARGE_INTESTINE): 0.9107
PRISM AUC (OV7_OVARY): 0.3327
PRISM AUC (OV56_OVARY): 0.6812
AUC (PRISM viability) (OVISE_OVARY): 0.7216
AUC (PRISM viability) (OVKATE_OVARY): 0.7188
AUC (PRISM viability) (OVTOKO_OVARY): 0.7297
AUC (PRISM viability) (P12ICHIKAWA_HAEMATOPOIETIC_AND_LYMPHOID_TISSUE): 0.1917
PRISM AUC (PANC1_PANCREAS): 0.7301
PRISM AUC (PANC0203_PANCREAS): 0.1549
PRISM AUC (PANC0327_PANCREAS): 0.3885
PRISM AUC (PANC0403_PANCREAS): 0.1969
PRISM AUC (PANC0504_PANCREAS): 0.2677
PRISM AUC (PANC0813_PANCREAS): 0.6012
PRISM AUC (PANC1005_PANCREAS): 0.492
PRISM AUC (PATU8902_PANCREAS): 0.2883
PRISM AUC (PATU8988S_PANCREAS): 0.2608
PRISM AUC (PATU8988T_PANCREAS): 0.5033
AUC (PRISM viability) (PC3_PROSTATE): 0.7599
AUC (PRISM viability) (PC14_LUNG): 0.4618
AUC (PRISM viability) (PECAPJ15_UPPER_AERODIGESTIVE_TRACT): 0.4843
AUC (PRISM viability) (PECAPJ41CLONED2_UPPER_AERODIGESTIVE_TRACT): 0.3318
AUC (PRISM viability) (PECAPJ49_UPPER_AERODIGESTIVE_TRACT): 0.2883
AUC (PRISM viability) (PF382_HAEMATOPOIETIC_AND_LYMPHOID_TISSUE): 0.3397
PRISM AUC (PK1_PANCREAS): 0.3834
PRISM AUC (PK45H_PANCREAS): 0.5023
PRISM AUC (PK59_PANCREAS): 0.2749
AUC (PRISM viability) (PLCPRF5_LIVER): 0.7216
PRISM AUC (PSN1_PANCREAS): 0.12
PRISM AUC (QGP1_PANCREAS): 0.3907
AUC (PRISM viability) (RCC10RGB_KIDNEY): 0.7484
PRISM AUC (RCM1_LARGE_INTESTINE): 0.1259
AUC (PRISM viability) (RDES_BONE): 0.7616
AUC (PRISM viability) (RD_SOFT_TISSUE): 0.207
AUC (PRISM viability) (RERFGC1B_STOMACH): 0.5427
PRISM AUC (RERFLCAD2_LUNG): 0.4067
AUC (PRISM viability) (RERFLCAI_LUNG): 0.6094
AUC (PRISM viability) (RERFLCKJ_LUNG): 0.8949
AUC (PRISM viability) (RERFLCMS_LUNG): 0.7953
AUC (PRISM viability) (RH30_SOFT_TISSUE): 0.6971
AUC (PRISM viability) (RI1_HAEMATOPOIETIC_AND_LYMPHOID_TISSUE): 0.7681
PRISM AUC (RKN_SOFT_TISSUE): 0.1266
AUC (PRISM viability) (RKO_LARGE_INTESTINE): 0.9515
AUC (PRISM viability) (RL952_ENDOMETRIUM): 0.342
AUC (PRISM viability) (RL_HAEMATOPOIETIC_AND_LYMPHOID_TISSUE): 0.7851
AUC (PRISM viability) (RMGI_OVARY): 0.5297
AUC (PRISM viability) (RMUGS_OVARY): 0.8312
AUC (PRISM viability) (RPMI7951_SKIN): 0.9756
AUC (PRISM viability) (RPMI8402_HAEMATOPOIETIC_AND_LYMPHOID_TISSUE): 0.7828
AUC (PRISM viability) (RT4_URINARY_TRACT): 0.5133
AUC (PRISM viability) (RT112_URINARY_TRACT): 0.1516
AUC (PRISM viability) (RVH421_SKIN): 0.8566
AUC (PRISM viability) (SBC5_LUNG): 0.6474
AUC (PRISM viability) (SCABER_URINARY_TRACT): 0.3752
AUC (PRISM viability) (SCC9_UPPER_AERODIGESTIVE_TRACT): 0.5257
